Laboratory results as given in PMC3914206.

Assays:
Format in all cases: binding
Conditions in all cases: Compound Concentration 10 µM
panel of 442 kinases [1] = molecular target: T1, panel of 442 kinases (Homo sapiens, UniProt P42345)
T1 construct: purchased KINOMEscan
Description: (§1) We assessed the selectivity of members of this scaffold using the KINOMEscan methodology across a near comprehensive panel of 442 kinases [[18,27]].

panel of 442 kinases [2] = molecular target: T2, panel of 442 kinases (Homo sapiens, UniProt P45983)
T2 construct: purchased KINOMEscan
T2 sequence (P45983 whole entry): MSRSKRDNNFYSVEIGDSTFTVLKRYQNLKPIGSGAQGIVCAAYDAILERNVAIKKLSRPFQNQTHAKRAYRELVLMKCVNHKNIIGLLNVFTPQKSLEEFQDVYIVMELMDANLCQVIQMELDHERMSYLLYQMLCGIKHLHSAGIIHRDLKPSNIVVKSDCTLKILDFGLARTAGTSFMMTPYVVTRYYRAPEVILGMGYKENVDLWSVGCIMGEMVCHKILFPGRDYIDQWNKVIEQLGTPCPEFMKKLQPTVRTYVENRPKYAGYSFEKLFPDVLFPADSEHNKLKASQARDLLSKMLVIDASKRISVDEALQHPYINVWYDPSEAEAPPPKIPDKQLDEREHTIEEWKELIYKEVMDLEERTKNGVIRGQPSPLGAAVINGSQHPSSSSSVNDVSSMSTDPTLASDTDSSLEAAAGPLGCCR
Description: as §1

panel of 442 kinases [3] = molecular target: T3, panel of 442 kinases (Homo sapiens, UniProt Q32MK0)
T3 construct: purchased KINOMEscan
T3 sequence (Q32MK0 1-819): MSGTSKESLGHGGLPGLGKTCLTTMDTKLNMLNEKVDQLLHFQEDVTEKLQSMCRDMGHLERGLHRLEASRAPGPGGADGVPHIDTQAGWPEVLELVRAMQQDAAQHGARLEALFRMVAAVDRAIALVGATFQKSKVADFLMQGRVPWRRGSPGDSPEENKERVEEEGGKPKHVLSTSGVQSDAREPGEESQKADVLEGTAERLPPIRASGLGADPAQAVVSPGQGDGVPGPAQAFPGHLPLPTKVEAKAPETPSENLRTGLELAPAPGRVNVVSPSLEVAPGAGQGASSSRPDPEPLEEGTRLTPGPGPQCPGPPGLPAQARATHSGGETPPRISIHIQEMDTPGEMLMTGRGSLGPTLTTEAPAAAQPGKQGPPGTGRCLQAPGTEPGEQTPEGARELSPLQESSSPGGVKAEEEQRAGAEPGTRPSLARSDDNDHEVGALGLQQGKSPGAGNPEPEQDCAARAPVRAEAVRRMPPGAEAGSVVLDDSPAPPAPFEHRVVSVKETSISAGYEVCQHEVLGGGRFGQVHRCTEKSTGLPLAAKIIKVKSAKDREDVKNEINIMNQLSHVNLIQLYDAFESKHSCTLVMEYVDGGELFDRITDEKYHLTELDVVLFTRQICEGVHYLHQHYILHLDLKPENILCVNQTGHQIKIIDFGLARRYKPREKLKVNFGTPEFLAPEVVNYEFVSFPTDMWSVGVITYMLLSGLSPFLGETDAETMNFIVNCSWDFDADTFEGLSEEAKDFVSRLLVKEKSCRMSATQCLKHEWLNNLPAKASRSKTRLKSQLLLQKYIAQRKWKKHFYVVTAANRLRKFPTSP
Description: as §1

Row | Compound | KINOMEscan: MTOR (panel of 442 kinases [1]) | KINOMEscan: JNK1 (panel of 442 kinases [2]) | KINOMEscan: MLCK (panel of 442 kinases [3])
1 | COc1cc(C(=O)N2CCC(N3CCN(C)CC3)CC2)ccc1Nc1ncc2c(n1)N(C)c1ccccc1C(=O)N2C [15 (LRRK2-IN-1)] | 97 | 95 | 100
2 | CCOc1cc(C(=O)N2CCC(N3CCN(C)CC3)CC2)ccc1Nc1ncc2c(n1)N(C1CCCC1)c1ccccc1C(=O)N2C [Compound 26] | 100 | 76 | 100
3 | COc1cc(C(=O)N2CCC(N3CCN(C)CC3)CC2)ccc1Nc1ncc2c(n1)N1CCc3cccc(c31)C(=O)N2C [Compound 24] | – | 63 | –
4 | COc1cc(C(=O)N2CCC(N3CCN(C)CC3)CC2)ccc1Nc1ncc2c(n1)N(C1CCCC1)c1ccccc1C(=O)N2C [Compound 25, 11-cyclopentyl-2-((2-methoxy-4-(4-(4-methylpiperazin-1-yl)piperidine-1-carbonyl)phenyl)amino)-5-methyl-5H-benzo[e]pyrimido[5,4-b][1,4]diazepin-6(11H)-one] | 100 | 38 | 100
